From patent publication US20250049914A1, “STEROID ACID-PEPTIDE BASED INTRACELLULAR CARGO DELIVERY” (DEFENCE THERAPEUTICS INC., priority 2021, published 2025)
Where no end group is shown, it is not given here.

Tests used:
JIMT-1 cells = test: Cas9-GFP delivery with Lipofectamine CRISPRMAX transfection reagent; type: cell-based
Procedure: To assess whether the enhanced intracellular delivery conferred by bile acid-NLS moieties is compatible with other delivery technologies, a delivery experiment in JIMT-1 cells was performed using Lipofectamine™ CRISPRMAX™ Cas9 Transfection Reagent (Thermo Fisher Scientific) according to the manufacturer's protocol, except that the cargo was Cas9-GFP alone or conjugated to/mixed with different bile acid-NLS moieties. The results are shown in Table 3 with GFP fluorescence values being normalized to that of cells incubated with the unconjugated cargo/transfection reagent alone (Cas9-GFP alone). […] Fluorescence microscopy experiments in live cells confirmed that the Cas9-GFP cargoes were successfully delivered to the nucleus of JIMT-1 cells (data not shown).

BMDCs = test: Antigen-presentation assay using the B3Z reporter system, BMDCs; type: cell-based, mouse; settings: BMDCs, OVA admixed, best conjugate: antigen ratio
Procedure: Mouse bone marrow derived DCs (BMDCs) were generated by flushing the whole marrow from mouse femurs using RPMI™ 1640 supplemented with 10% fetal bovine serum (FBS), 50 U/mL Penicillin-Streptomycin, 2 mM L-glutamine, 10 mM HEPES, 1% MEM Non-essential Amino Acids, 1 mM Sodium Pyruvate, 0.5 mM beta-mercaptoethanol. Following red blood cell lysis, cells were then cultured in media supplemented with 50 ng/mL murine recombinant GM-CSF. The media was changed on days 2, 4, 6 and 8. On day 9, the media was replaced to include recombinant murine GM-CSF and LPS from Escherichia coli 0111 (1 ng/mL) to stimulate DC maturation. Mature DCs were assessed by flow cytometry for their surface expression of CD3, CD19, NK1.1, CD11c, CD80, CD86, and I-A^b.
(§1) Various bile acid-NLS conjugates were screened using the B3Z reporter system. The B3Z cell line is a T-cell hybridoma specific for the H2-K^b-[…] complex. Once activated via its TCR, the LacZ reporter gene (under the NFAT promoter control) is expressed. Briefly, 1.5×10^5 BMDCs or 2.5×10^5 MSCs were co-cultured with 5×10^4 B3Z cells treated with the mixing conditions of ovalbumin (OVA) and bile acid-NLS conjugates for overnight at 37° C. with 5% CO2. The following day, all cells were washed twice with PBS (pH 7.4), and the cell pellets were lysed by adding 100 μL of a lysis buffer containing 0.15 mM chlorophenol red-beta-D-galactopyranoside (CPRG) substrate (Calbiochem, La Jolla, CA), 0.125% NP40 (EMD Sciences, La Jolla, CA), 9 mM MgCl2 (Aldrich, USA) and 100 mM 2-mercaptoethanol in PBS. After a 5- or 24-h incubation at 37° C., absorbance was taken at 570 nm with 636 nm as the reference wavelength. For these experiments, OVA was re-suspended in PBS (pH 7.3) at 5-10 mg/mL. The different bile acid-NLS conjugates were re-suspended in H2O at 10 mg/mL. Bile acid-NLS conjugate: antigen mixtures were prepared at different molar ratios according to Table 1.
Variants of CA-SV40NLS were synthesized in order to explore structure-activity relationships relating to the antigen cross-presentation enhancing activity observed for this conjugate, and therefore a measure of antigen/cargo delivery. More particularly, conjugates having different bile acids conjugated to the SV40NLS peptide (SEQ ID NO: 1) were synthesized and their effect on antigen presentation was evaluated by using the B3Z reporter system with the OVA antigen as described in Example 1. […] In FIG. 11, no increase in antigen cross-presentation in BMDCs over the antigen alone (“OVA”) was observed when OVA was mixed with either unconjugated cholic acid (“CA”) or SV40NLS peptide (“SV40NLS”), although lower sensitivity of the B3Z reporter system as compared to the OT-I CD8 T cell-based assay may have been a factor.
(§2) Further variants of CA-SV40NLS were synthesized in which the SV40NLS peptide was replaced with peptides comprising other NLS's (Table 5) and the antigen presentation activities of the CA-NLS peptide conjugates were evaluated using the B3Z reporter system as described in Example 1. The following conjugate: antigen molar ratios were tested for each conjugate: 2:1, 4:1, 8:1, 12:1 and 22:1. The results in FIGS. 12-15 compare the antigen presentation activities of different conjugates at the conjugate: antigen ratio that yielded the highest B3Z response (OD570) for that conjugate.

[1] = tested on: cross-presenting mesenchymal stromal cell line (cpMSC); test: Antigen-presentation assay using the B3Z reporter system, cross-presenting MSC line; type: cell-based; settings: cpMSCs, OVA admixed, vs OVA alone or OVA mixed with CA-SV40NLS
Procedure: as §1, §2

CA-HuR: cholic acid conjugated to HuR NLS peptide CGRFSPMGVDHMSGLSGVNVPG (SEQ ID NO: 13) (not fully specified (N-terminus); also: cholic acid conjugate, site not given here)
increase in intracellular Cas9-GFP delivery vs Cas9-GFP/transfection reagent alone (JIMT-1 cells): 17 fold | antigen-presentation activity of cholic acid-NLS peptide conjugates (B3Z response) (BMDCs): high antigen presentation activity | antigen-presentation activity of cholic acid-NLS peptide conjugates (B3Z response) [1]: strikingly high antigen-presentation activity
